Laboratory results as given in article PMC6017957, “Synthesis, Anti-Proliferative Activity Evaluation and 3D-QSAR Study of Naphthoquinone Derivatives as Potential Anti-Colorectal Cancer Agents” (Molecules : A Journal of Synthetic Chemistry and Natural …, 2018).
Like-named read-outs stand apart in the source and are kept apart here.

Tests used:
[1] = tested on: HT-29 colorectal cancer cells; assay: MTT anti-proliferative assay against HT-29 cells; type: cell-based, human; settings: for IC50: Homo sapiens; for Selectivity Index: SI = IC50Fibroblast/IC50HT-29cells; for Cytotoxic activity category against HT-29: classified by HT-29 IC50
Experimental: (§1) The toxicity of the thirty-six compounds was determined in vitro by means of the MTT assay. Doxorubicin, a drug widely used to treat different types of cancer, was employed as a positive control, whereas the solvent (DMSO) was used as negative control.
(§2) Test compounds were dissolved in DMSO to obtain stock solutions that were maintained as small aliquots at −20 °C. At time of drug addition, an aliquot was thawed and diluted to obtain the desired final maximum test concentration of 100 μM, with complete medium. The final percentage of DMSO in the wells was less than 1% (v/v). […] Anti-Proliferative Assay
(§3) Doxorubicin, a drug widely used to treat different types of cancer, was used as a positive control. After 48 h, the medium was removed and cells were incubated with MTT solution (0.25 mg/mL). Four hours later, the medium was carefully aspired and formazan crystals were dissolved in DMSO (100 μL). The OD550 was measured using a plate reader (Multiskan Go, Thermo Scientific, Waltham, MA, USA). […] The selectivity index (SI), was calculated as a ratio of IC50Fibroblast/IC50HT-29cells.
(§4) The results are expressed as the mean of triplicate measurements in at least two independent experiments.

fibroblasts PCS-201-012 = assay: MTT cytotoxicity assay against normal dermal fibroblasts; type: cell-based; settings: Fibroblast, value with 95% confidence interval, read-out: PCS-201-012 IC50 μM (95% CI)
Experimental: as §1, §2, §3, §4

[2] = HT-29, 48 h, MTT, 48 h, 0–100 µM, value with 95% confidence interval, read-out: HT-29 IC50 μM (95% CI)
[3] = HT-29, −logIC50 against HT-29, CoMFA training and test sets, read-out: pIC50 Experimental (converted)

Row | Compound | IC50 [1, 2] [µM] | IC50 [1, 3] [µM] | Selectivity Index [1] | Cytotoxic activity category against HT-29 [1] | IC50 (fibroblasts PCS-201-012) [µM] | melting point [°C]
1 | O=C1c2ccccc2C(=O)c2occc21 [Compound 4j, Naphtho[2,3-b]furan-4,9-dione] | 8.2 | 8.2 | 1.01 | highly active | 8.28 | 229.4
2 | Cc1cc2c(o1)-c1ccccc1C(=O)C2=O [Compound 4g, 2-Methylnaphtho[1,2-b]furan-4,5-dione] | 8.36 | 8.36 | 0.23 | highly active | 1.93 | 124
